The target in this assay is T1, DLK (Homo sapiens, UniProt Q12852).
T1 construct: N-terminally GST-tagged DLK (catalytic domain amino acid 1-520) (Carna Bioscience); GST (N); purchased Carna Bioscience
T1 sequence (Q12852 1-520): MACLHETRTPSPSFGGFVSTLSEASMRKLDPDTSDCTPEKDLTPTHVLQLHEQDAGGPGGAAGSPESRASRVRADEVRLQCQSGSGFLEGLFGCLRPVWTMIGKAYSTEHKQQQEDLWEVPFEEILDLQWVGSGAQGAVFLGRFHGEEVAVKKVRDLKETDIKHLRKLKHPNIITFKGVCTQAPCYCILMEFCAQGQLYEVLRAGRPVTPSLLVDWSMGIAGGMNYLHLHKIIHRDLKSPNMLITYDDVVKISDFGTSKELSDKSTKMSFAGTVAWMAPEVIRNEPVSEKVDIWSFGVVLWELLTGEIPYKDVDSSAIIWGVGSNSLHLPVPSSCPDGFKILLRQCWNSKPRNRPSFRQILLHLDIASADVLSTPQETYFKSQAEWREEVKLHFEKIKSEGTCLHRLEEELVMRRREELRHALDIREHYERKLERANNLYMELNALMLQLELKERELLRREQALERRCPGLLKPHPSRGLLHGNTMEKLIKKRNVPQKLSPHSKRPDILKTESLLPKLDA
The assay can be described thus: DLK TR-FRET assay. Format: biochemical. The settings on record: 5 nM GST-tagged DLK (catalytic domain amino acid 1-520), 40 nM HIS-tagged MKK4 K131M substrate, 30 μM ATP, 60 minutes. The protocol:
DLK TR-FRET assay: DLK kinase reactions (20 μL) containing 5 nM N-terminally GST-tagged DLK (catalytic domain amino acid 1-520) (Carna Bioscience), 40 nM N-terminally HIS-tagged MKK4 K131M substrate, and 30 μM ATP in kinase reaction buffer (50 mM HEPES, pH 7.5, 0.01% Triton X-100, 0.01% Bovine γ-Globulins, 2 mM DTT, 10 mM MgCl2 and 1 mM EGTA), and testing compound 1:3 serial diluted starting at 20 uM were incubated at ambient temperature for 60 minutes in 384 well OptiPlate (Perkin Elmer). To quench kinase reactions and detect phosphorylated MKK4, 15 μL of TR-FRET antibody mixture containing 2 nM anti-phosphorylated MKK4 labeled with Europium cryptate (Cisbio) and 23 nM anti-HIS labeled with D2 (Cisbio) in detection buffer (25 mM Tris pH 7.5, 100 mM NaCl, 100 mM EDTA, 0.01% Tween-20, and 200 mM KF) was added to the reaction mixture. The detection mixture was incubated for 3 hours at ambient temperature and the TR-FRET was detected with an EnVision multilabel plate reader (Perkin-Elmer) using the LANCE/DELFIA Dual Enh label from Perkin-Elmer (excitation filter: UV2 (TRF) 320 and emission filters: APC 665 and Europium 615).
A general note: TR-FRET usually uses a lanthanide donor and a delayed reading to cut background.

As usually defined, the Ki is a measure of affinity in units of concentration, obtained from inhibition or displacement. Low values mean a stronger hold on the target, high ones a looser hold on the target. `N#CC1(c2cc(Nc3cc(C(F)F)ccn3)nc(N3CCC(F)(F)C3)c2)CCOCC1` [Example 56, 4-[2-(4-Difluoromethyl-pyridin-2-ylamino)-6-(3,3-difluoro-pyrrolidin-1-yl)-pyridin-4-yl]-tetrahydro-pyran-4-carbonitrile] had a Ki of 2.1 nM.

In turn, `CC(=O)N1CCC(c2cc(Nc3cc(C(F)F)ccn3)nc(C3CC3)c2)CC1` [Example 57, 1-[6′-Cyclopropyl-2′-(4-difluoromethyl-pyridin-2-ylamino)-3,4,5,6-tetrahydro-2H-[4,4′]bipyridinyl-1-yl]-ethanone] displayed an inhibition constant Ki of 3.5 nM.

`CCc1cc(C2CCN(C(C)=O)CC2)cc(Nc2cc(C(F)F)ccn2)n1` [Example 58, 1-[2′-(4-Difluoromethyl-pyridin-2-ylamino)-6′-ethyl-3,4,5,6-tetrahydro-2H-[4,4′]bipyridinyl-1-yl]-ethanone] had a Ki of 64 nM.

As to `CC(=O)N1CCC(c2cc(Nc3cc(C#N)ccn3)nc(C3CC3)c2)CC1` [Example 59, 2-(1′-Acetyl-6-cyclopropyl-1′,2′,3′,4′,5′,6′-hexahydro-[4,4′]bipyridinyl-2-ylamino)-isonicotinonitrile], the affinity, expressed as Ki, was 1.5 nM.

The compound `CCc1cc(C2CCN(C(C)=O)CC2)cc(Nc2cc(C#N)ccn2)n1` [Example 60, 2-(1′-Acetyl-6-ethyl-1′,2′,3′,4′,5′,6′-hexahydro-[4,4′]bipyridinyl-2-ylamino)-isonicotinonitrile] returned a Ki of 28 nM.

`N#Cc1ccnc(Nc2cc(C3(C#N)CCOCC3)cc(N3CCC(F)(F)C3)n2)c1` [Example 61, 2-[4-(4-Cyano-tetrahydro-pyran-4-yl)-6-(3,3-difluoro-pyrrolidin-1-yl)-pyridin-2-ylamino]-isonicotinonitrile] came in with a Ki of 4.7 nM.

In turn, `CC(=O)N1CCC(c2cc(C)nc(Nc3cc(C(F)F)ccn3)c2)CC1` [Example 62, 1-[2′-(4-Difluoromethyl-pyridin-2-ylamino)-6′-methyl-3,4,5,6-tetrahydro-2H-[4,4′]bipyridinyl-1-yl]-ethanone] gave a Ki of 170 nM.

For `N#Cc1ccnc(Nc2cc(C3(C#N)CCOCC3)cc(C3CC3)n2)c1` [Example 63, 2-[4-(4-Cyano-tetrahydro-pyran-4-yl)-6-cyclopropyl-pyridin-2-ylamino]-isonicotinonitrile], the Ki turned out to be 8.6 nM.

As for `Cc1cc(C2(C#N)CCOCC2)cc(Nc2cc(C#N)ccn2)n1` [Example 64, 2-[4-(4-Cyano-tetrahydro-pyran-4-yl)-6-methyl-pyridin-2-ylamino]-isonicotinonitrile], the inhibition constant (Ki) was 170 nM.

As for `CC(=O)N1CCC(c2cc(Cl)nc(Nc3cc(C#N)ccn3)c2)CC1` [Example 65, 2-(1′-Acetyl-6-chloro-1′,2′,3′,4′,5′,6′-hexahydro-[4,4′]bipyridinyl-2-ylamino)-isonicotinonitrile], the affinity corresponds to a Ki of 30 nM.

In turn, `N#CC1(c2cc(Cl)nc(Nc3cc(C(F)F)ccn3)c2)CCOCC1` [Example 66, 4-[2-Chloro-6-(4-difluoromethyl-pyridin-2-ylamino)-pyridin-4-yl]-tetrahydro-pyran-4-carbonitrile] gave a Ki of 43 nM. This Ki and that of the compound before are within 1.5-fold of each other.

Compound `N#Cc1ccnc(Nc2cc(C3(C#N)CCOCC3)cc(N3CC4CC4C3)n2)c1` (stereo not shown) [Example 67, 2-[6-(3-Aza-bicyclo[3.1.0]hex-3-yl)-4-(4-cyano-tetrahydro-pyran-4-yl)-pyridin-2-ylamino]-isonicotinonitrile] had a Ki of 0.4 nM.

Regarding `C[C@@H]1CCCN1c1cc(C2CCN(C3COC3)CC2)cc(Nc2cc(C(F)F)ccn2)n1` [Example 68, (4-Difluoromethyl-pyridin-2-yl)-[6-((R)-2-methyl-pyrrolidin-1-yl)-1′-oxetan-3-yl-1′,2′,3′,4′,5′,6′-hexahydro-[4,4′]bipyridinyl-2-yl]-amine], the Ki turned out to be 0.3 nM.

`N#Cc1ccnc(Nc2cc(C3(C#N)CCOCC3)cc(N3CC4CC(F)(F)C4C3)n2)c1` (stereo not shown) [Example 69, 2-[4-(4-Cyano-tetrahydro-pyran-4-yl)-6-(6,6-difluoro-3-aza-bicyclo[3.2.0]hept-3-yl)-pyridin-2-ylamino]-isonicotinonitrile] gave a Ki of 4 nM.

Regarding `N#Cc1ccnc(Nc2cc(C3CCN(C4COC4)CC3)cc(N3CCC[C@@H]3C(F)(F)F)n2)c1` [Example 70, 2-[1′-Oxetan-3-yl-6-((R)-2-trifluoromethyl-pyrrolidin-1-yl)-1′,2′,3′,4′,5′,6′-hexahydro-[4,4′]bipyridinyl-2-ylamino]-isonicotinonitrile], affinity was put at a Ki of 1.8 nM.

Consider `FC(F)c1ccnc(Nc2cc(C3CCN(C4COC4)CC3)cc(N3CCC(F)(F)C3)n2)c1` [Example 71, (4-Difluoromethyl-pyridin-2-yl)-[6-(3,3-difluoro-pyrrolidin-1-yl)-1′-oxetan-3-yl-1′,2′,3′,4′,5′,6′-hexahydro-[4,4′]bipyridinyl-2-yl]-amine], for which the Ki stood at 0.36 nM.

Turning to `Cc1cc(C2CCN(CC(F)(F)F)CC2)cc(Nc2cc(C#N)ccn2)n1` [Example 72, 2-[6-Methyl-1′-(2,2,2-trifluoro-ethyl)-1′,2′,3′,4′,5′,6′-hexahydro-[4,4′]bipyridinyl-2-ylamino]-isonicotinonitrile], the Ki worked out at 150 nM.

`C[C@@H]1CCCN1c1cc(C2(C#N)CCOCC2)cc(Nc2cc(C#N)ccn2)n1` [Example 74, 2-[4-(4-Cyano-tetrahydro-pyran-4-yl)-6-((R)-2-methyl-pyrrolidin-1-yl)-pyridin-2-ylamino]-isonicotinonitrile] registered a Ki of 0.2 nM.

As for `N#Cc1ccnc(Nc2cc(C3(C#N)CCOCC3)cc(N3CCC3)n2)c1` [Example 75, 2-[6-Azetidin-1-yl-4-(4-cyano-tetrahydro-pyran-4-yl)-pyridin-2-ylamino]-isonicotinonitrile], affinity was put at a Ki of 13 nM. Against the preceding compound, the Ki is about 65-fold higher.

The compound `FC(F)c1ccnc(Nc2cc(C3CCN(C4COC4)CC3)cc(Cl)n2)c1` [Example 76, (6-Chloro-1′-oxetan-3-yl-1′,2′,3′,4′,5′,6′-hexahydro-[4,4′]bipyridinyl-2-yl)-(4-difluoromethyl-pyridin-2-yl)-amine] showed a Ki of 16 nM.

Turning to `N#Cc1ccnc(Nc2cc(C3(C#N)CCOCC3)cc(Cl)n2)c1` [Example 77, 2-[6-Chloro-4-(4-cyano-tetrahydro-pyran-4-yl)-pyridin-2-ylamino]-isonicotinonitrile], the Ki came to 190 nM.

`N#Cc1ccnc(Nc2cc(C3CCOCC3)cc(Cl)n2)c1` [Example 78, 2-[6-Chloro-4-(tetrahydro-pyran-4-yl)-pyridin-2-ylamino]-isonicotinonitrile]: the Ki came to 3.1 nM.

In the case of `N#Cc1ccnc(Nc2cc(C3CCN(C4COC4)CC3)cc(N3CCCC3=O)n2)c1` [Example 79, 2-[1′-Oxetan-3-yl-6-(2-oxo-pyrrolidin-1-yl)-1′,2′,3′,4′,5′,6′-hexahydro-[4,4′]bipyridinyl-2-ylamino]-isonicotinonitrile], the affinity corresponds to a Ki of 35 nM.

With `Cc1cc(C2CCOCC2)cc(Nc2cc(C#N)ccn2)n1` [Example 80, 2-[6-Methyl-4-(tetrahydro-pyran-4-yl)-pyridin-2-ylamino]-isonicotinonitrile], the Ki amounted to 58 nM.

On to `N#Cc1ccnc(Nc2cc(C3CCOCC3)cc(N3CC4CC3C4)n2)c1` [Example 81, 2-[6-(2-Aza-bicyclo[2.1.1]hex-2-yl)-4-(tetrahydro-pyran-4-yl)-pyridin-2-ylamino]-isonicotinonitrile], for which the Ki amounted to 11.4 nM. Compared with the last compound, the Ki is about 5.1-fold lower.

The values above are taken from patent US9399636B2, “Substituted dipyridylamines and uses thereof” (Genentech, Inc., priority 2012, dated 2016).
